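How tested: cells in 96-well plates exposed to compound for 48 hours at five concentrations. GI50 marks 50% less growth. TGI: concentration producing complete growth inhibition.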
Experiments:
Test in all cases: NCI anticancer screen, dose series, 48 h
[1] = system: A498 renal
[2] = system: IGROV1 ovarian
[3] = system: SNB-75 CNS
[4] = system: RPMI-8226 leukemia
[5] = system: SK-MEL-5 melanoma
[6] = system: SK-MEL-28 melanoma
[7] = system: DU-145 prostate
[8] = system: 786-0 renal
[9] = system: ACHN renal
[10] = system: OVCAR-3 ovarian

Row | SMILES | GI50 [1] | TGI [1] | GI50 [2] | TGI [2] | GI50 [3] | TGI [3] | GI50 [4] | TGI [4] | GI50 [5] | TGI [5] | GI50 [6] | TGI [6] | GI50 [7] | TGI [7] | GI50 [8] | TGI [8] | GI50 [9] | TGI [9] | GI50 [10] | TGI [10]
1 | O=C(N/N=C/c1coc2ccc(Cl)cc2c1=O)c1cc(O)c(O)c(O)c1 | 13600 nM | 42300 nM | 44500 nM | > 100000 nM | 72000 nM | > 100000 nM | 28500 nM | > 100000 nM | 11600 nM | 34200 nM | 65700 nM | > 100000 nM | 30700 nM | > 100000 nM | 23400 nM | 66000 nM | 22100 nM | 52500 nM | 40400 nM | > 100000 nM
2 | O=C1OC(=O)c2c1cc1cc3c(cc1c2-c1ccc2c(c1)OCO2)OCO3 |  | > 100000 nM |  | > 100000 nM |  | > 100000 nM |  | > 100000 nM |  | > 100000 nM |  | > 100000 nM |  | > 100000 nM |  | 48100 nM |  | > 100000 nM |  | > 100000 nM
3 | O=[N+]([O-])c1cc2c(ccc3ccccc32)o1 | 127 nM | 277 nM | 703 nM | 5560 nM | 497 nM | 2270 nM | 1130 nM | 6810 nM | 141 nM | 296 nM | 210 nM | 585 nM | 341 nM | 4810 nM | 720 nM | 3630 nM | 147 nM | 480 nM | 1310 nM | 4640 nM
4 | C[C@H]1CCC/C=C/[C@@H]2C[C@H](O)C[C@H]2[C@H](O)C(O)C(O)C(=O)O1 (some centres undefined) | 2290 nM | 7960 nM | 2960 nM | 11700 nM | 578 nM |  | 2660 nM | 14900 nM | 362 nM |  | 1250 nM | > 100000 nM | 6690 nM | > 100000 nM | 788 nM | > 100000 nM | 3430 nM | 20900 nM | 2350 nM | 20100 nM
5 | O=C1c2c[n+](Cc3ccccc3)ccc2-c2nc3ccccc3c3ccnc1c23 | 532 nM | 1970 nM | 827 nM | 4040 nM | 804 nM | 3710 nM | 1060 nM | 6760 nM | 439 nM | 1040 nM | 954 nM | 3950 nM | 417 nM | 891 nM | 829 nM | 2760 nM | 196 nM | 33300 nM | 379 nM | 1870 nM
6 | COc1cc2c(cc1OCCCN1CCN(CCCOc3cc4c(cc3OC)C(=O)N3C[C@H](F)C[C@H]3C=N4)CC1)N=C[C@@H]1C[C@@H](F)CN1C2=O | 94.7 nM | 380 nM | 69.6 nM | 1880 nM | 33.8 nM | 594 nM | 22.6 nM | 1040 nM |  |  | 71.3 nM | 343 nM | 83 nM | 6160 nM | 26.3 nM | 763 nM | 102 nM | 945 nM | 119 nM | 2910 nM
7 | COc1cc(/C=C2\CC3C4CC=C5C[C@@H](N6CCCC6)CC[C@]5(C)C4CC[C@]3(C)[C@H]2OC(C)=O)ccc1OCCCn1ccnc1 (some centres undefined) | 2660 nM | 5180 nM | 8120 nM | > 50000 nM |  |  | 343 nM | > 14000 nM | 373 nM | 790 nM | 157 nM | > 50000 nM | 170 nM | 1490 nM | 369 nM | 1380 nM | 383 nM | 1090 nM | 275 nM | 777 nM
